Assay results as given in publication PMC9259591, “Irigenin, a novel lead from Iris confusa for management of Helicobacter pylori infection with selective COX-2 and HpIMPDH inhibitory potential” (Scientific Reports, 2022).
In brackets after ≈: the same amount, converted by molar mass. Several values for one entry are separate records, joined by “and”; a condition that tells them apart may be missing. Equal entries are not always repeated. Where two headings read alike, the source gives them in different places.

Key:
H. pylori ATCC 700392 = experiment: anti-Helicobacter pylori activity, microwell dilution method with MTT; assay type: cell-based; conditions: for MIC: read-out: MIC (H. pylori)
Description: The anti-Helicobacter pylori activity of the PF and NPF as well as the isolated compounds was evaluated against H. pylori ATCC 700392 (type strain, obtained from the American Type Culture Collection unit (ATCC), using microwell dilution method and clarithromycin as standard drug[37]. The detailed procedures were described in the supplementary file.
The anti-Helicobacter pylori activity of the PF and NPF as well as the isolated compounds was evaluated against H. pylori ATCC 700392 (a type strain, obtained from the American Type Culture Collection unit (ATCC), using microwell dilution method and clarithromycin as standard drug ^1. The tested samples were prepared in dimethyl sulfoxide and successive ten twofold dilutions (125- 0.24 µg/mL) were carried out in a 96-well plate. Each microplate well included forty μL of Brain Heart Infusion growth medium and 10% fetal bovine serum (FBS), ten μL of inoculum and fifty μL of the tested sample. The plates were incubated for 3 days, in 5% oxygen, 10% carbon dioxide, 85 % nitrogen atmosphere at 37°C. Forty μL of 3- (4, 5-dimethyl-thiazol-2-yl)- 2,5-diphenyl-tetrazolium bromide (MTT) at a final concentration of 0.5 mg/mL freshly prepared in H2O was added to each well and incubated for 30 min. The bacteria were biologically active when change to purple color was observed ^1. While no change in MTT color indicated inhibition. Solvent control (DMSO) and the standard antibiotic (clarithromycin) were used as negative and positive controls, respectively. The H. pylori inhibition % was calculated using the given formula:
% Inhibition = Abs control – Abs sample × 100 /Abs control.

ovine COX-1 = target: T1, ovine COX-1 (Ovis aries, UniProt P05979); experiment: COX-1 inhibitory activity, colourimetric COX inhibitor screening assay kit; assay type: biochemical
T1 construct: purchased
T1 sequence (P05979 25-600): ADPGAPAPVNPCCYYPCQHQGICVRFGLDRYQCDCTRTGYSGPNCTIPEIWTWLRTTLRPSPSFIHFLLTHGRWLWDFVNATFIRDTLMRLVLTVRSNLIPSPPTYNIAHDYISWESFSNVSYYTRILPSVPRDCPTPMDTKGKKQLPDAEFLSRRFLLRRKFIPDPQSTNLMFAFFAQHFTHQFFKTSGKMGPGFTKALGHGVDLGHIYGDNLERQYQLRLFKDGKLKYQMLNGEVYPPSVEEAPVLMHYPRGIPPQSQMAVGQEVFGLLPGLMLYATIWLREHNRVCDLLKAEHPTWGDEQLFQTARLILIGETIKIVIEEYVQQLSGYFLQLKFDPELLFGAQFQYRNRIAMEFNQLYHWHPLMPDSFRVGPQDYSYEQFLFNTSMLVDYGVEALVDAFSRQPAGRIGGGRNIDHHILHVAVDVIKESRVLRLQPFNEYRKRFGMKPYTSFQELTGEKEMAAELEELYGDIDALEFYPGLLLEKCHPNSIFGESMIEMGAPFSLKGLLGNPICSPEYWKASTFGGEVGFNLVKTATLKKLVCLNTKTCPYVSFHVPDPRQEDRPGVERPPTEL
Description: (§1) The inhibitory COX activity was assayed colourimetrically by examining the inhibition of the ovine COX-1 and human recombinant COX-2 enzymes as described by George et al.[38], using a COX inhibitor screening assay kit. The detailed procedures were described in the supplementary file.
(§2) The inhibitory COX activity was assayed colourimetrically by examining the inhibition of the ovine COX-1 and human recombinant COX-2 enzymes as described by George et al. ^2, using a COX inhibitory screening assay kit. This assay determines the COX peroxidase activity by monitoring the appearance of N,N,N',N'-tetramethyl-p-phenylenediamine (TMPD). Assay buffer (150 μL 0.1 M Tris–HCl pH 8.0), 10 μL heme and 10μL enzyme (COX-1 or COX-2) were added in each well. Ten μL of each tested sample concentration was added to each well and incubated for 15 minutes at 37°C. After incubation, 20 μL of TMPD was added to each well. For initiating the reaction, 10 μL 10 mM arachidonic acid was added and the plates were further incubated for another 2 minutes at 37°C. For terminating the reaction, 50 μL 1 N HCl and saturated stannous chloride were added.
(§3) Reaction mixture containing assay buffer and heme acted as the blank and a mixture with either COX-1 or COX-2 assay buffer and heme acted as the 100% initial activity (IA). […] The absorbances of oxidized TMPD (blue colour) were read in ELISA plate reader at 590 nm. The % inhibition was calculated using the following formula:
(§4) COX % Inhibition= [(100%IA−Inhibitor)/ 100% IA x 100]. Where, IA: 100% initial activity.
(§5) The concentration at which the tested sample produces 50% inhibition of COX-1 and/or COX-2 (IC50) was determined. The selectivity index (SI) was calculated also as IC50 (COX-1)/ (COX-2).

human recombinant COX-2 = target: T2, human recombinant COX-2 (Homo sapiens, UniProt P35354); experiment: COX-2 inhibitory activity, colourimetric COX inhibitor screening assay kit; assay type: biochemical
T2 construct: purchased
T2 sequence (P35354 18-604): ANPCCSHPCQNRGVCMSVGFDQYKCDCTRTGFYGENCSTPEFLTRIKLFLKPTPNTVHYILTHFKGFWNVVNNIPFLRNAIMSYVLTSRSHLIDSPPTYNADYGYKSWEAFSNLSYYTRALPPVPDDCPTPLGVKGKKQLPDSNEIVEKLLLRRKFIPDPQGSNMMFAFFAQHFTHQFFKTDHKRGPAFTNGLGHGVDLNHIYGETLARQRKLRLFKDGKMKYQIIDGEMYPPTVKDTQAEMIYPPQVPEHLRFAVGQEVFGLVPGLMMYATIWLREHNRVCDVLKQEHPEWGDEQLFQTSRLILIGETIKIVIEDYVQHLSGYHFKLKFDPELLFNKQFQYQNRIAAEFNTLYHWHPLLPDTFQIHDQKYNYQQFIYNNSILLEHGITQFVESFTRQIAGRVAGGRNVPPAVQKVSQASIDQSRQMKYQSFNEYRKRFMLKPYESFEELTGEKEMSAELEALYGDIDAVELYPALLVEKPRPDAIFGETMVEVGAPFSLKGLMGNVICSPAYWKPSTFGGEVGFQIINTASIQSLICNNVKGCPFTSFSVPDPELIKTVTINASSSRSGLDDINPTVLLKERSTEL
Description: as §1, §2, §3, §4, §5

[1] = test system: RAW 264.7 macrophage cell line (NO); experiment: nitric oxide (NO) inhibitory activity in lipopolysaccharide-stimulated macrophages; assay type: cell-based, murine; conditions: Mus musculus, RAW264.7, RAW 264.7 cells, 1 µg/mL lipopolysaccharide
Description: The detailed procedures were described in the supplementary file.
The cell was incubated at 37 °C in 5% carbon dioxide. RAW 264.7 cells were seeded onto a 96-well plate (1×10^5 cells/well) and incubated for 24 h. […] Followed by incubation, the cells stimulated with 1µg/mL of lipopolysaccharide for another 24 h. The supernatant was gently transferred to new 96-well plates and used for NO determination. L-N 6 - (1-iminoethyl) lysine hydrochloride), is used as standard drug. The absorbance (Abs) was measured in a microplate reader at 540 nm ^3. The percentage inhibition was calculated using the following formula:
Inhibition (%) = 1-[Control-Test] Control × 100.

SMILES: COc1c(O)cc2occ(-c3ccc(O)cc3)c(=O)c2c1O [Tectorigenin (P4), 4′,5,7-trihydroxy-6-methoxyisoflavone]
- MIC (H. pylori ATCC 700392; Helicobacter pylori, ATCC700392): 15.6 µg/mL and 52 µM
- MIC (H. pylori) (H. pylori ATCC 700392; concentration required for 100% inhibition, H. pylori ATCC 700392, ND = not detected): 15.63 µg/mL (≈ 52.1 µM)
- MIC (H. pylori ATCC 700392; concentration required for 100% inhibition, H. pylori ATCC 700392): 52.05 µM (≈ 15.6 µg/mL)
- IC50 (ovine COX-1): 407 µM
- IC50 (human recombinant COX-2; human recombinant COX-2, ND = not detected): 189 µM
- SI (COX-1/COX-2) (human recombinant COX-2; selectivity index calculated as IC50 (COX-1)/(COX-2)): 2.16
- IC50 [1]: > 416 µM
- IC50 ([1]; ND = not detected): > 125 µg/mL
